The target of series [1] is T1, hM3Dq (Homo sapiens, UniProt P20309, A239G/Y149C). Nature of the series: Locomotor activity in TH-hM3Dq rats. It is filed as in vivo, rat. Further details: host or cells: TH-expressing neurons of the ventral tegmental area in TH:Cre rats (AAV transduction, in vivo). The conditions noted are these: for Locomotor activity, individual animals (Figure 3 Panel G): listed as J52. The protocol:
Tyrosine hydroxylase (TH):Cre rats (n = 9; founder, K. Deisseroth lab) or WT littermates (n = 9) were bilaterally injected with AAV2 hSyn-DIO-hM3Dq-mCherry (1ul/hemisphere, Addgene), and allowed to recover for 2 + weeks. […] Vehicle was administered on 2 separate days, and average locomotion was used for comparison with DREADD agonists. Cohort 2 underwent the same procedures, but with a 4 h testing session, and the following IP injections: vehicle (x2), JHU37152 (0.01–0.3 mg kg^−1), JHU37160 (0.01–0.3 mg kg^−1). All drugs were dissolved in 5% DMSO in saline, and injected 1 ml kg^−1.

A further series has as its target T2, P-gp (Homo sapiens, UniProt P08183).
T2 construct: host or cells: Caco-2
As to the kind of experiment: P-glycoprotein (P-gp) substrate assay in Caco-2 cells with and without verapamil. It is filed as in vitro ADME. Particulars: Caco-2, efflux ratio with/without verapamil. As for the experimental part:
These experiments were performed by an outside vendor (Eurofins, France). C21 was tested in P-gp substrate assessment assays at 10 µM. The A to B and B to A permeability was measured in Caco-2 cells in the presence and absence of verapamil, a P-gp inhibitor. Efflux ratios (E) were calculated based on the apparent B–A and A–B permeability with and without verapamil. In each experiment, the respective reference compound was tested concurrently with the test compound to assess the assay reliability. Fluorescein was used as the cell monolayer integrity marker. Fluorescein permeability assessment (in the A–B direction at pH 7.4 on both sides) was performed after the permeability assay for the test compound.

For series [2], the target named is T3, hM4Di (Homo sapiens, UniProt P08173, A203G/Y113C).
T3 sequence (P08173 1-479 Y113C/A203G): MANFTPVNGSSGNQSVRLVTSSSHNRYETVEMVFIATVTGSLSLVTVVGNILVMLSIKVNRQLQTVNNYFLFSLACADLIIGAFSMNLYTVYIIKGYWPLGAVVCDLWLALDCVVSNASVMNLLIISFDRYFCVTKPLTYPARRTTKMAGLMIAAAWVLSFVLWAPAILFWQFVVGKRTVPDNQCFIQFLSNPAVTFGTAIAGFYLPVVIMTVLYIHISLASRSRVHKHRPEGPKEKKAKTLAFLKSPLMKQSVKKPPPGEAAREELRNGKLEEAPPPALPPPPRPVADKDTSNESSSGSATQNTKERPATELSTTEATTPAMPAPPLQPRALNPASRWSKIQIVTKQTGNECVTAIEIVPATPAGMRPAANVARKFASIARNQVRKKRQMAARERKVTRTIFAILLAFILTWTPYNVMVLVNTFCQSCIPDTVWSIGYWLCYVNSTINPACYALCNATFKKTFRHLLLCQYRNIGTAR
As to the kind of experiment: [3H]clozapine competition binding, membranes of HEK-293 cells expressing hM4Di.
Protocol: Cells were routinely tested for myclopasma contamination (MycoAlert® Mycoplasma Detection Kit, Lonza). Cells were seeded on 60 cm^2 dishes at 4 × 10^6 cells/dish 24 h before transfection. The indicated amount of cDNA was transfected into HEK-293 cells using polyethylenimine (PEI; Sigma-Aldrich) in a 1–2 DNA:PEI ratio. Cell harvesting for radioligand binding experiments or signaling assays were performed approximately 48 h after transfection.
Cells were suspended in Tris-HCl 50 mM pH 7.4 supplemented with protease inhibitor cocktail (1:100, Sigma-Aldrich, St. Louis, MO, USA). The dissected brain tissue was diluted in Tris-HCl 50 mM buffer supplemented with protease inhibitor cocktail (1:1000). HEK-293 cells or brain tissue were disrupted with a Polytron homogenizer (Kinematica, Basel, Switzerland). Homogenates were centrifuged at 48,000g (50 min, 4 °C) and washed twice in the same conditions to isolate the membrane fraction. Protein was quantified by the bicinchoninic acid method (Pierce). […] In all cases, free and membrane-bound radioligand were separated by rapid filtration of 500-μl aliquots in a 96-well plate harvester (Brandel, Gaithersburg, MD, USA) and washed with 2 ml of ice-cold Tris-HCl buffer. […] One-site competition curves were fitted using Prism 7 (GraphPad Software, La Jolla, CA, USA). Ki values were calculated using the Cheng–Prusoff equation.

Series [3] has as its target T3, hM4Di. As to the kind of experiment: Locomotor activity in D1-hM4Di mice.
Description: (§1) Wild-type mice (C57BL/6J) were ordered from Jackson Laboratories and rats (Sprague–Dawley) were ordered from Charles River. Rodents were male and ordered at ~6 weeks of age. Transgenic mice were bred at NIDA breeding facility. […] Three male rhesus monkeys (Macaca mulatta) weighed 8–12 kg. All experiments and procedures complied with all relevant ethical regulations for animal testing and research and followed NIH guidelines and were approved by each institute’s animal care and use committees.
(§2) Ten minutes after injection, animals were placed in an open field arena (Opto-varimex ATM3, Columbus Instruments) and their locomotor activity was tracked during 60 min as infrared beam crossings and traveled distance was converted to cm. Animals were repeatedly tested on consecutive sessions (after an initial habituation session with no drug treatment) in a counterbalanced design.
In series [4] the target is T1, hM3Dq.
Description: as §1, §2
A further series has as its system WT mice. Nature of the series: Locomotor activity in WT mice.
The test system of a further series is striatal DREADDs. As to the kind of experiment: [11C]clozapine PET DREADD occupancy in AAV-DREADD mice.
Series [5] deals with untransfected HEK-293 cells. Nature of the series: Negative controls of the functional assays: HEK-293 cells without DREADD. In kind it is cell-based, human. Particulars: for functional response, BRET (Go-alpha-Rluc8, beta1, gamma2-mVenus), no DREADD / functional response, GCaMP6f, no DREADD: HEK-293 cells. As for the experimental part:
BRET assays were performed to detect receptor ligand-induced Gαo1 protein activation. […] Forty-eight hour after transfection cells were harvested, washed and resuspended in phosphate-buffered saline (PBS). Approximately, 200,000 cells/well were distributed in 96-well plates, and 5 µM Coelenterazine H (substrate for luciferase) was added to each well. Five minutes after addition of Coelenterazine H, ligands were added to each well. The fluorescence of the acceptor was quantified (excitation at 500 nm and emission at 540 nm for 1-s recordings) in a PheraStar FSX plate reader (BMG Labtech) to confirm the constant expression levels across experiments. In parallel, the BRET signal from the same batch of cells was determined as the ratio of the light emitted by mVenus (510–540 nm) over that emitted by RLuc (485 nm). Results were calculated for the BRET change (BRET ratio for the corresponding drug minus BRET ratio in the absence of the drug) 5 min after the addition of the ligands.
Intracellular Ca^2+ concentration was monitored using the fluorescent Ca^2+ biosensor GCaMP6f. HEK-293 cells were transfected with 7 µg/dish of the cDNA encoding for hM3Dq (Addgene #89149) or hM4Di (Addgene #89150) and 7 µg/dish of GCaMP6. Forty-eight hours after transfection, cells were harvested, washed, resuspended in Mg^2+-free Locke’s buffer pH 7.4 (154 mM NaCl, 5.6 mM KCl, 3.6 mM NaHCO3, 2.3 mM CaCl2, and 5 mM HEPES) containing 5.6 mM of glucose and approximately 200,000 cells/well were distributed in black 96-well plates. Increasing concentrations of the indicated compound were added to the cells and fluorescence intensity (excitation at 480 nm, emission at 530 nm) was measured at 18-s intervals during 250 s using a PHERAstar FSX (BMG Labtech). The net change in intracellular Ca^2+ concentration was expressed as F − F0 where F is the fluorescence at a given concentration of ligand and F0 is the average of the baseline values (fluorescence values of buffer-treated wells).
In general terms: BRET reads energy transfer from a luciferase to a nearby fluorophore.

From paper PMC6788984, “High-potency ligands for DREADD imaging and activation in rodents and monkeys” (Nature Communications, 2019) come the findings set out here.

What is called Ki is the dissociation constant of the complex between target and ligand, obtained from inhibition or displacement.

Several values for one entry are separate records, joined by “and”; a condition that tells them apart may be missing. Equal entries are not always repeated. Entries after “also recorded” stand apart in the source; their conditions may differ. Where two headings read alike, the source gives them in different places.

T1 sequence (P20309 whole entry Y149C/A239G): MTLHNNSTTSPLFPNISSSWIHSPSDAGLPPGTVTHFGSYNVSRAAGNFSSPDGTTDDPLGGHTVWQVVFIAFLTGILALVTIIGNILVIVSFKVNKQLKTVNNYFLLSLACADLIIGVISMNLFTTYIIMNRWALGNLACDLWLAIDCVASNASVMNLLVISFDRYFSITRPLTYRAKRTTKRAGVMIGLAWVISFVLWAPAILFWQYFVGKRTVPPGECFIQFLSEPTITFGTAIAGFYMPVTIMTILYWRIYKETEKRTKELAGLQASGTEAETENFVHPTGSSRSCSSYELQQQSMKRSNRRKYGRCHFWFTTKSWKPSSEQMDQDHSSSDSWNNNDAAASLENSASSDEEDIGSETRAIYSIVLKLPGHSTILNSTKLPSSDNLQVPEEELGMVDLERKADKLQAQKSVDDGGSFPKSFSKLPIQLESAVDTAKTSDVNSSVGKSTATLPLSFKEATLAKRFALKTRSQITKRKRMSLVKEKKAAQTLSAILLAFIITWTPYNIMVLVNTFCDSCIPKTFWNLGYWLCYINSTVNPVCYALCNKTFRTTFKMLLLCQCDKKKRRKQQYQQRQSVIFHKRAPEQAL
T2 sequence (P08183 whole entry): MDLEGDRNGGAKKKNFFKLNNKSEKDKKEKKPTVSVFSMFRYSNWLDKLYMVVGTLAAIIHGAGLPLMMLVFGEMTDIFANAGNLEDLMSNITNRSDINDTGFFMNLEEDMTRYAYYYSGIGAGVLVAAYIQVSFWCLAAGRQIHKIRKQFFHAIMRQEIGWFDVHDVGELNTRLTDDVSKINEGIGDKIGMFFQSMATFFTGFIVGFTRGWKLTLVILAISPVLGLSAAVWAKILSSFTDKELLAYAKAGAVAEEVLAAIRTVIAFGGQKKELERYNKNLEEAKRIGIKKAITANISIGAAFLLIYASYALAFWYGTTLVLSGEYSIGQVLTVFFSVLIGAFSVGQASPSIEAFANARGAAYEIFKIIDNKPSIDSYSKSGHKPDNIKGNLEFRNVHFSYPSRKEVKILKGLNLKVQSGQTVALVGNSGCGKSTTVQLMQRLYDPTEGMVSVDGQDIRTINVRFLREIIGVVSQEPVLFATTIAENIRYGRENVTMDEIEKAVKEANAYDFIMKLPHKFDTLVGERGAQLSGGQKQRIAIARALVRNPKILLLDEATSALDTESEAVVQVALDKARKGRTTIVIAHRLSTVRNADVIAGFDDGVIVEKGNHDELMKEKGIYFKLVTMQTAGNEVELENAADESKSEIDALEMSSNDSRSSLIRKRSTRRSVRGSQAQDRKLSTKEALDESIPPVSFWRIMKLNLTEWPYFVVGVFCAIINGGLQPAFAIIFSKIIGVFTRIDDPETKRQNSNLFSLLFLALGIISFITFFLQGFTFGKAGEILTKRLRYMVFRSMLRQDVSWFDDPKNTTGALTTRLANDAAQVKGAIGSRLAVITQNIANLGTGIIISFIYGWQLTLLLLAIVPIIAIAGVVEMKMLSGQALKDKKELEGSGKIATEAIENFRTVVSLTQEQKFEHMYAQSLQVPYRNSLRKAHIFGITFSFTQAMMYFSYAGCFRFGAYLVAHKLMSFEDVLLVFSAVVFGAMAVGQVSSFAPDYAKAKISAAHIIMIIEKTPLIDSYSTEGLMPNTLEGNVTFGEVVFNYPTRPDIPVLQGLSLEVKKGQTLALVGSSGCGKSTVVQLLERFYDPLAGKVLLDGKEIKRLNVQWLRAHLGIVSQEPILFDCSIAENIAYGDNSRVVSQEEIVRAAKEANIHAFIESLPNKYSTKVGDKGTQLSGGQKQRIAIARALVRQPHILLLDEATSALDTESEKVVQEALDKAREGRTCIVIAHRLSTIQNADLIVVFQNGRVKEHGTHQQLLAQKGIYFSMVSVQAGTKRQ
Description for WT mice: as §1, §2
Protocol for striatal DREADDs: Animals were anesthetized with isoflurane or a mix of ketamine/xylazine and prepped on a stereotaxic apparatus (Kopf, Germany). […] When indicated, animals were pretreated with vehicle or the indicated drug 10 min before the injection of the PET radiotracer. Total acquisition time was 60 min.
In all cases, the PET data were reconstructed and corrected for dead-time and radioactive decay. All qualitative and quantitative assessments of PET images were performed using the PMOD software environment (PMOD Technologies, Zurich Switzerland). Binding potential BPND (a relative measure of specific binding) was calculated using a reference tissue model using the cerebellum as a reference tissue in rodents. In macaques, the kinetic data were fitted to a two-tissue compartment model and the concentration of parent in plasma was used as an input function, then the volume of distribution ratios compared to cerebellum were calculated to establish BPND. In all cases, the dynamic PET images were coregistered to MRI templates and time-activity curves were generated using predefined volumes of interest (macaques) or manually drawn in rodents and the described analyses were performed. Receptor occupancy was calculated using the formula: occupancy = (BPND^0 − BPND^Drug)/BPND^0 × 100, where BPND^0 is the binding potential of the baseline condition and BPND^Drug the binding potential when the animals were pretreated with the drug.

Consider `c1ccc2c(c1)N=C(N1CCNCC1)c1ccccc1N2` [C21], for which the locomotor activity result is on record as “significant increases in locomotor activity” on hM3Dq [1] (TH-hM3Dq rats, 1 or 5 mg/kg IP); “small but significant decrease in locomotor activity” at hM4Di [3] (D1-hM4Di mice, 1 mg/kg); “robust decrease of locomotor activity” at hM3Dq [4] (D1-hM3Dq mice, 0.1 and 1 mg/kg); “did not affect locomotor activity” in the series on WT mice (mouse, in vivo). Also, at P-gp, the P-gp substrate result was “none of these compounds is a substrate for P-gp”. The Ki on hM4Di [2] (read-out: hM4Di Ki, [3H]clozapine competition, HEK-293 membranes) stood at 91 nM. Moreover, the behavior entry at hM4Di [3] (D1-hM4Di mice, 10 mg/kg) is given as “sedation”; on hM3Dq [4] (D1-hM3Dq mice, 10 mg/kg), “seizure-like behavior”. Moreover, the “dose required to activate hM4Di” value on hM4Di [3] (rodents) is reported as “at least 1 mg kg^-1”. The “lowest dose activating hM3Dq” value at hM3Dq [4] (rodents (rats and mice)) is 0.1 mg/kg. In addition, the “locomotor activity / non-specific effects” value with WT mice (WT mice, 10 mg/kg) is “produced non-specific effects”. In the series with WT mice (mice without DREADDs), the “doses producing off-target effects” value is reported as “higher than 1 mg kg^-1”. For the same molecule, the “in vivo DREADD occupancy ([11C]CLZ displacement)” value in the series with striatal DREADDs (1 mg/kg IP) is given as ~ 10%. The “functional response in HEK-293 cells lacking DREADDs” value in series [5] is “Neither clozapine nor C21 produced detectable functional responses”. Besides, the “functional response, BRET (Go-alpha-Rluc8, beta1, gamma2-mVenus), no DREADD” value in series [5] is recorded as “did not show any functional response”. In series [5], the “functional response, GCaMP6f, no DREADD” value is “did not show any functional response”.

On to `CCN1CCN(C2=Nc3cc(Cl)ccc3Nc3cccc(F)c32)CC1` [JHU37152, 8-Chloro-11-(4-ethylpiperazin-1-yl)-1-fluoro-5H-dibenzo[b,e][1,4]diazepine], for which the “Locomotor activity, individual animals (Figure 3 Panel G)” value at hM3Dq [1] (dose 0.01) is 94.7443 and 207.479 and 64.3586 and 274.036 and 1667.81 and 1211.25 and 111.862; at hM3Dq [1] (dose 0.1), 1115.35 and 940.001 and 366.654 and 337.558 and 1635.37 and 694.852 and 547.724. Besides, the hM3Dq-stimulated locomotion result at hM3Dq [1] (TH-hM3Dq rats, 0.01-0.3 mg kg-1) was “robust, selective increases in hM3Dq-stimulated locomotion”. Besides, the P-gp substrate result at P-gp is reported as “Neither JHU37152 nor JHU37160 were P-gp substrates”; on P-gp (listed as J52), “none of these compounds is a substrate for P-gp”. In addition, on hM4Di [2], the Ki stood at 8.7 nM. For the same molecule, the locomotor activity entry is given as “selectively inhibiting locomotor activity” at hM4Di [3] (D1-hM4Di mice, 0.01 to 1 mg kg-1); “selectively inhibiting locomotor activity” at hM3Dq [4] (D1-hM3Dq mice, 0.01 to 1 mg kg-1); “without any significant locomotor effects” with WT mice (WT mice, 0.01 to 1 mg kg-1). Also, the “Locomotor activity, individual animals (Figure 3 Panel C)” value at hM4Di [3] (dose 0.01) was 58.5024 and 108.441 and 109.915 and 131.721 and 115.402 and 75.1276 and 118.881 and 108.271 and 41.4007; at hM4Di [3] (dose 0.1) it was 72.1502 and 118.453 and 147.655 and 108.28 and 115.789 and 27.5857 and 55.2206 and 30.1649 and 43.619; at hM4Di [3] (dose 1) it was 21.6168 and 115.427 and 110.069 and 108.688 and 73.7541 and 20.9336 and 36.5894 and 6.171 and 23.7054. Further, the “Locomotor activity, individual animals (Figure 3 Panel A)” value in the series on WT mice (WT mice, dose 0.01) is 95.2897 and 38.5088 and 39.3587 and 61.0726 and 69.3706 and 99.6544 and 90.1854 and 160.23 and 57.4795 and 29.9947 and 33.6903 and 133.302 and 88.2496 and 102.637 and 90.23; with WT mice (WT mice, dose 0.1), 107.254 and 270.493 and 33.7361 and 22.8384 and 36.807 and 76.5906 and 34.7692 and 97.3133 and 74.027 and 53.9478 and 95.1236 and 125.045 and 39.4044 and 129.319 and 143.965; in the series with WT mice (WT mice, dose 1), 81.5049 and 96.9074 and 39.4517 and 156.512 and 62.1842 and 92.749 and 79.3711 and 129.761 and 80.0996 and 7.993 and 23.9209 and 25.8105 and 93.4157 and 30.5341 and 90.9279. In the series on striatal DREADDs (0.1 mg kg-1 IP), the “occupancy of striatal DREADDs” value is on record as 15–20%. The “functional response in HEK-293 cells lacking DREADDs” value in series [5] was “no responses were observed; also recorded: did not produce any agonistic effect”. The “functional response, BRET (Go-alpha-Rluc8, beta1, gamma2-mVenus), no DREADD” value in series [5] is reported as “did not show any functional response”. Besides, in series [5], the “functional response, GCaMP6f, no DREADD” value is “did not show any functional response”.
